Assay [1] concerns HL-60 cells. Briefly: FACS analysis of cell surface markers on HL-60 cells. It is filed as cell-based, human. As for the experimental part: Calcium was removed from cultured cells by two methods.
The second method involved washing the cells extensively in calcium-free RPMI medium, and culturing them in the same calcium-free medium supplemented with serum that had been dialyzed against calcium-free phosphate-buffered saline.
The calmodulin kinase inhibitors KN-62 (20 uM) or KT-5926 (1 uM) was added to HL-60 cells in the presence of 188 ng/ml A23187. Twenty four hours later the level of CD80 was analyzed.
Thapsigargin was added to cultured human peripheral blood monocytes and HL-60 cells in concentrations ranging from 0 to 1000 nM. Cells were harvested 24 hours later and evaluated for the acquisition of ADC immunophenotypic characteristics by FACS analysis.
Cells were harvested after three days, irradiated (3000R), then FACS analyzed or cocultured in graded numbers with freshly prepared naive (CD45RO negative) T lymphocytes. Allosensitization was assessed by pulsing at day 4 with ^3H-TdR and harvesting 18 hours later.

Assay [2] relates to human peripheral blood monocytes. Description: FACS analysis of cell surface markers on cultured peripheral blood monocytes. It is filed as cell-based. As to conditions: for effect of agent on ionophore-induced activated myeloid dendritic cell phenotype: added to calcium ionophore treatment; for induction of activated myeloid dendritic cell phenotype (CD80 and CD83 expression): 20-40 hours, wide dose range, alone or in combination. On the technique in general: A flow cytometer gives signals particle by particle.

For assay [3], the system named is HL-60 cells. Briefly: FACS analysis of cell surface markers on HL-60 cells. Format: cell-based, human. The source holds these as a separate data set.
Assay [4] relates to WEHI-3. Description: Costimulatory molecule expression on mouse myeloid leukemia line. It is filed as cell-based. Particulars: following calcium mobilization. An excerpt:
Myeloid leukemia cell lines display marked upregulation of molecules linked to antigen-presentation and acquire increased T cell sensitizing capacity following calcium mobilization with either calcium ionophore or thapsigargin.
(In general: A change in cytosolic calcium serves as a functional read-out for many receptors and channels.)

The subject of assay [5] is monocytes. Description: Calcium-chelation luminescence spectrophotometry of intracellular calcium flux. Format: cell-based, human. Particulars: indol-loaded monocytes; calcium ionophore 180-750 ng/ml. How it is done:
Calcium-chelation luminescence spectrophotometry was utilized to measure intracellular calcium fluxes in monocytes. Monoytes were incubated with 5 uM/ml indol, a calcium chelating agent which emits fluorescence at different wavelengths (405 or 480 nm) depending on whether or not it is bound to cycloplasmic calcium. Increased calcium mobilization causes relative shifts in emission from one wavelength to the other. After 30 minute incubation with indol, monocytes were washed, pulsed with a variety of agents such as calcium ionophore, virus, f-MET-LEU-PHE, or LPS. To measure calcium fluxes at subsequent time intervals, cells were stimulated with a 355 nm wavelength beam, and fluorescence emission measured at 405 and 480 nm.

Entries after “also recorded” stand apart in the source; their conditions may differ.

Take `O=C(O)CN(CCN(CC(=O)O)CC(=O)O)CC(=O)O` [EDTA]: the “suppression of ionophore-induced CD80/CD86” value in assay [1] (0.25 uM EDTA) is recorded as “suppressive effects rapidly diminished”; in assay [1] (0.5 uM EDTA) it was “Almost identical suppression”. Besides, the “diminution of ionophore-induced CD86 levels” value in assay [1] (1 uM EDTA) was “more than 85%”. Besides, the “suppression of ionophore-induced CD80 upregulation” value in assay [1] (1 uM EDTA) is 100%.

With `NCCCCCCNS(=O)(=O)c1cccc2c(Cl)cccc12` [W-7], the “effect of agent on ionophore-induced activated myeloid dendritic cell phenotype” value (shortened to “effect of agent”) in assay [2] was “inhibited at least some of the ionophore's effects”. Further, the “inhibition of ionophore-induced CD80 expression” value in assay [3] (W-7 50 uM (optimal), A23187 188 ng/ml, 24 hours) is given as “over 75%”.

Regarding `CN[C@@H]1C[C@H]2O[C@@](C)([C@@H]1OC)n1c3ccccc3c3c4c(c5c6ccccc6n2c5c31)C(=O)NC4` [staurosporine], the “effect of agent” value in assay [2] was “enhanced CD14 downregulation and upregulation of costimulatory, MHC, and other molecule expression”.

As for `C/C=C(/C)C(=O)O[C@H]1C(C)=C2[C@H]([C@@H]1OC(=O)CCCCCCC)[C@@](C)(OC(C)=O)C[C@H](OC(=O)CCC)[C@@]1(O)[C@H]2OC(=O)[C@@]1(C)O` [thapsigargin], the “upregulation of CD80, CD86, CD40, HLA-DR, HLA-ABC, ICAM-1 and CD83 as magnitude of that with optimal (750 ng/ml) A23187” value in assay [2] (thapsigargin 750 nM, 24 hours) is reported as “about 50%”. In addition, the “CD14 downregulation, effectiveness relative to ionophore” value in assay [2] (thapsigargin, 24 hours) is listed as “about 75%”. In assay [1] (24 hours, range 0 to 1000 nM), the “dose giving optimal response” value is given as 250 nM. For the same molecule, in assay [1] (thapsigargin 250 nM, 24 hours), the “levels of CD80, CD86 and ICAM-1 relative to those observed with ionophore” value is 50-75%. Further, in assay [4], the costimulatory molecule expression entry is listed as “markedly increased costimulatory molecule expression”. Also, the “expression of CD83, ICAM-1, B7.1 and B7.2” value in assay [3] (optimal doses, within 20 hours) was “uniform de novo expression of CD83, ICAM-1, B7.1, and B7.2”.

“MCP-1: chemokine inducing monocyte chemotaxis”: the “induction of activated myeloid dendritic cell phenotype (CD80 and CD83 expression)” value (from here on “induction”) in assay [2] is “do not induce monocytes to express the phenotype of activated myeloid dendritic cells”.

As for f-MET-LEU-PHE, the “induction” value in assay [2] is “do not induce monocytes to express the phenotype of activated myeloid dendritic cells; also recorded: does not induce that phenotype”. In addition, the “intracellular calcium flux / mobilization” value in assay [5] is “only a brief calcium flux of much lower magnitude”.

For rhGM-CSF: recombinant human GM-CSF, in assay [2], the “effect of agent” value was “enhanced CD14 downregulation and upregulation of costimulatory, MHC, and other molecule expression”. Besides, in assay [3] (rhGM-CSF alone), the “effect on HL-60 phenotype” value is reported as “little effect alone”.

For the molecule rhIL-4: recombinant human IL-4, the “effect of agent” value in assay [2] is “enhanced CD14 downregulation and upregulation of costimulatory, MHC, and other molecule expression”.

With rhIL-6: recombinant human IL-6, in assay [2], the “effect of agent” value is on record as “little or no effect”.

trifluoperazine dimaleate [TpD]: the “effect on CD40, HLA-DR and HLA-ABC” value in assay [2] (TpD) was “significant suppressive effects”. Further, in assay [2] (TpD 10 uM (optimal)), the “inhibition of CD80” value is recorded as “over 50%” and the “inhibition of CD86” value is recorded as “over 50%”. The “effect of agent” value in assay [2] is “inhibited at least some of the ionophore's effects”. In addition, the “inhibition of ionophore-induced up-regulation of CD80” value in assay [3] (TpD 10 uM (optimal), A23187 188 ng/ml, 24 hours) was “over 90%”.

B1: rhIL-1 alpha: recombinant human IL-1 alpha (protein, UniProt P01583 113-271, looked up)
Interleukin-1 alpha: SAPFSFLSNVKYNFMRIIKYEFILNDALNQSIIRANDQYLTAAALHNLDEAVKFDMGAYKSSKDDAKITVILRISKTQLYVTAQDEDQPVLLKEMPEIPKTITGSETNLLFFWETHGTKNYFTSVAHPNLFIATKQDYWVCLAGGPPSITDFQILENQA
In the case of B1, the “effect of agent” value in assay [2] is listed as “little or no effect”.

B2: RANTES: chemokine inducing monocyte chemotaxis (protein, UniProt P13501 24-91, looked up)
C-C motif chemokine 5: SPYSSDTTPCCFAYIARPLPRAHIKEYFYTSGKCSNPAVVFVTRKNRQVCANPEKKWVREYINSLEMS
In the case of B2, in assay [2], the “induction” value was “do not induce monocytes to express the phenotype of activated myeloid dendritic cells”.

B3: rhIFN-gamma: recombinant human interferon gamma (protein, UniProt P01579 24-161, looked up)
Interferon gamma: QDPYVKEAENLKKYFNAGHSDVADNGTLFLGILKNWKEESDRKIMQSQIVSFYFKLFKNFKDDQSIQKSVETIKEDMNVKFFNSNKKKRDDFEKLTNYSVTDLNVQRKAIHELIQVMAELSPAAKTGKRKRSQMLFRG
Consider B3, for which the “effect of agent” value in assay [2] was “enhanced CD14 downregulation and upregulation of costimulatory, MHC, and other molecule expression”. Further, the HLA-DR expression result in assay [1] (agent alone) is recorded as “induces HLA-DR expression”.

B4: rhIL-12: recombinant human IL-12 (protein, UniProt P29459 23-219; P29460 23-328, looked up)
Interleukin-12 subunit alpha: RNLPVATPDPGMFPCLHHSQNLLRAVSNMLQKARQTLEFYPCTSEEIDHEDITKDKTSTVEACLPLELTKNESCLNSRETSFITNGSCLASRKTSFMMALCLSSIYEDLKMYQVEFKTMNAKLLMDPKRQIFLDQNMLAVIDELMQALNFNSETVPQKSSLEEPDFYKTKIKLCILLHAFRIRAVTIDRVMSYLNAS
Interleukin-12 subunit beta: IWELKKDVYVVELDWYPDAPGEMVVLTCDTPEEDGITWTLDQSSEVLGSGKTLTIQVKEFGDAGQYTCHKGGEVLSHSLLLLHKKEDGIWSTDILKDQKEPKNKTFLRCEAKNYSGRFTCWWLTTISTDLTFSVKSSRGSSDPQGVTCGAATLSAERVRGDNKEYEYSVECQEDSACPAAEESLPIEVMVDAVHKLKYENYTSSFFIRDIIKPDPPKNLQLKPLKNSRQVEVSWEYPDTWSTPHSYFSLTFCVQVQGKSKREKKDRVFTDKTSATVICRKNASISVRAQDRYYSSSWSEWASVPCS
As for B4, the “effect of agent” value in assay [2] is “enhanced CD14 downregulation and upregulation of costimulatory, MHC, and other molecule expression”.

B5: rhIL-10: recombinant human IL-10 (protein, UniProt P22301 19-178, looked up)
Interleukin-10: SPGQGTQSENSCTHFPGNLPNMLRDLRDAFSRVKTFFQMKDQLDNLLLKESLLEDFKGYLGCQALSEMIQFYLEEVMPQAENQDPDIKAHVNSLGENLKTLRLRLRRCHRFLPCENKSKAVEQVKNAFNKLQEKGIYKAMSEFDIFINYIEAYMTMKIRN
As to B5, the “effect of agent” value in assay [2] is reported as “inhibited at least some of the ionophore's effects”.

B6: MIP-1-alpha: chemokine inducing monocyte chemotaxis (protein, UniProt P10147 24-92, looked up)
C-C motif chemokine 3: SLAADTPTACCFSYTSRQIPQNFIADYFETSSQCSKPGVIFLTKRSRQVCADPSEEWVQKYVSDLELSA
For B6, the “induction” value in assay [2] is given as “do not induce monocytes to express the phenotype of activated myeloid dendritic cells”.

The record behind these values is patent US6358736B1, “Method for increasing the antigen presenting ability of leukemia cells” (The United States of America as represented by the …, priority 1995, dated 2002).
